Patent US9173391B2, “Crystalline complexes of 4-hydroxy benzoic acid and selected pesticides” (BASF SE, priority 2009, dated 2015)
In brackets after ≈: the same amount, converted by molar mass.

Test: physchem
Details: water, thermodynamic from solid

C/C(=N\C#N)N(C)Cc1ccc(Cl)nc1 [crystalline acetamiprid, acetamiprid]
solubility at 24 h: 2750 µg/mL (≈ 12.3 mM)
